Laboratory results from patent US5118697A, “Cyclic beta-ketoamide ACAT inhibitors” (Warner-Lambert Company, priority 1991, dated 1992).
pIC50: −log10 of the molar value.

Target: T1, acyl-CoA: cholesterol acyltransferase (ACAT) (Oryctolagus cuniculus, UniProt G1SFD9)
T1 construct: tissue preparation containing rabbit intestinal microsomes; from tissue; host or cells: rabbit intestinal microsomes
T1 sequence (G1SFD9 1-524): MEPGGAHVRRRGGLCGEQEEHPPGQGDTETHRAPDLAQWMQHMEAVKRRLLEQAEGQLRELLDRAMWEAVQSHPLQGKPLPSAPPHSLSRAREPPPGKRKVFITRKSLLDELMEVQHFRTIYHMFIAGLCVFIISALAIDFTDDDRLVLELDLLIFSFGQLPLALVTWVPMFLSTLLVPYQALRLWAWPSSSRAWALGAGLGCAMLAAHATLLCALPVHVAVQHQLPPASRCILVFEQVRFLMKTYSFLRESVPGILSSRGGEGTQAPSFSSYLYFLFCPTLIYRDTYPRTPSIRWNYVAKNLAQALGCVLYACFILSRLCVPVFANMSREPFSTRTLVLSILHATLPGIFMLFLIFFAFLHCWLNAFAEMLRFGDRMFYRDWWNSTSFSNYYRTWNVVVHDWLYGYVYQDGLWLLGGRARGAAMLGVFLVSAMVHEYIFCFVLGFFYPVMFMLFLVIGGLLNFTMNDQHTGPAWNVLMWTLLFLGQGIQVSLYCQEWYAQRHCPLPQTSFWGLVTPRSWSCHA
Assay: in vitro ACAT inhibition test: radiolabeled cholesterol oleate formed from radiolabeled oleic acid in rabbit intestinal microsomes
Format: biochemical
Description: As shown by the data presented below in Table 1, the compounds of the present invention are potent inhibitors of the enzyme acyl-CoA: cholesterol acyltransferase (ACAT), and are thus effective in inhibiting the esterification and transport of cholesterol across the intestinal cell wall. The compounds of the present invention are thus useful in pharmaceutical formulations for the treatment of hypercholesterolemia or atherosclerosis.
The ability of representative compounds of the present invention to inhibit ACAT was measured using an in vitro test more fully described in F. J. Field and R. G. Salone, Biochemica et Biophysica 712:557-570 (1982). The test assesses the ability of a test compound to inhibit the acylation of cholesterol by oleic acid by measuring the amount of radiolabeled cholesterol oleate formed from radiolabeled oleic acid in a tissue preparation containing rabbit intestinal microsomes.

Row | pIC50 | Structure (SMILES)
1 | < 6.00 | CC(C)c1cccc(C(C)C)c1NC(=O)C1CCC(c2ccccc2)(c2ccccn2)C1=O (stereo not drawn) [Example 1]
2 | 6.00 | CC(C)c1cccc(C(C)C)c1NC(=O)C1CCCC(c2ccccc2)(c2ccccn2)C1=O (stereo not drawn) [Example 2, N-[2,6 bis(1-methylethyl)phenyl]-2-oxo-3-phenyl-3-(2-pyridinyl)cyclohexanecarboxamide]
3 | < 6.00 | CC(C)c1cccc(C(C)C)c1NC(=O)C1CCCC(Cc2c(CCN(C)C)n(C)c3ccccc23)(c2ccccc2)C1=O (stereo not drawn) [Example 3, N-[2,6 bis(1-methylethyl)phenyl-3-[2-[2-(dimethylamino)ethyl]-1-methyl-1H-indol-3-yl]methyl]-2-oxo-3-phenylcyclohexanecarboxamide]
4 | 6.59 | CC(C)c1cccc(C(C)C)c1NC(=O)C1CCCC(Cc2ccccn2)(c2ccccc2)C1=O (stereo not drawn) [Example 4, N-[2,6-bis(1 methylethyl)phenyl]-2-oxo-3-phenyl-3-(2-pyridinylmethyl)cyclohexanecarboxamide]
5 | 6.03 | CC(C)c1cccc(C(C)C)c1NC(=O)C1CCCC(Cc2ccccn2)(Cc2ccccn2)C1=O (stereo not drawn) [Example 5, N-[2,6-bis(1-methylethyl)phenyl]-2-oxo-3,3-bis(2-pyridinylmethyl)cyclohexanecarboxamide]
6 | 7.14 | CC(C)c1cccc(C(C)C)c1NC(=O)C1CCCC(CCCCCOc2ccccc2)(c2ccccc2)C1=O (stereo not drawn) [Example 6, N-[2,6-bis (1-methylethyl)phenyl]-2-oxo-3-(5-phenoxypentyl)-3-phenylcyclohexanecarboxamide]
